Several values for one entry are separate records, joined by “and”; a condition that tells them apart may be missing. Equal entries are not always repeated. Inconclusive results and toxic doses are left out. Rule for the calls: active = survival T/C of 150% or more; inactive = T/C below 125% in these data.
Tested on: P388 leukemia ip, CD2F1 mice, survival T/C
Test: NCI In Vivo Anticancer Drug Screen. Data for tumor model P388 Leukemia (intraperitoneal) in CD2F1 (CDF1) mice
Details: endpoint: median survival time, higher = longer survival
In short: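 Mice carrying the transplanted tumor received test compound or vehicle. Survival was recorded in each group, and the value is the treated-group measurement divided by that of the vehicle-treated control group.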

[1] = dose: 100.0 mg/kg/injection, schedule: Q01DX009 (ip), vehicle: saline with Tween-80
[2] = dose: 200.0 mg/kg/injection, schedule: Q01DX009 (ip), vehicle: saline with Tween-80
[3] = dose: 400.0 mg/kg/injection, schedule: Q01DX009 (ip), vehicle: saline with Tween-80
[4] = dose: 50.0 mg/kg/injection, schedule: Q01DX005 (ip), vehicle: Klucel (hydroxypropylcellulose) (HPC)
[5] = dose: 100.0 mg/kg/injection, schedule: Q01DX005 (ip), vehicle: Klucel (hydroxypropylcellulose) (HPC)
[6] = dose: 200.0 mg/kg/injection, schedule: Q01DX005 (ip), vehicle: Klucel (hydroxypropylcellulose) (HPC)
[7] = dose: 50.0 mg/kg/injection, schedule: Q01DX005 (ip), vehicle: saline with Tween-80
[8] = dose: 100.0 mg/kg/injection, schedule: Q01DX005 (ip), vehicle: saline with Tween-80
[9] = dose: 200.0 mg/kg/injection, schedule: Q01DX005 (ip), vehicle: saline with Tween-80
[10] = dose: 50.0 mg/kg/injection, schedule: Q01DX009 (ip), vehicle: saline with Tween-80

Measured: T/C

CCCCCCCC(=O)OC(C)C1/C=C/C=C\C(=O)O[C@@H]2C[C@H]3OC4C5OC5(C)CCC4(COC(=O)C4O[C@@]4(C)C(OC(=O)CCCCCCC)CO1)[C@]2(C)[C@]31CO1 (stereo partly drawn)
inactive: dose: 1.25 mg/kg/injection, schedule: Q01DX009 (ip), vehicle: Klucel (hydroxypropylcellulose) (HPC) 102 % of control | dose: 2.5 mg/kg/injection, schedule: Q01DX009 (ip), vehicle: Klucel (hydroxypropylcellulose) (HPC) 106 % of control | dose: 5.0 mg/kg/injection, schedule: Q01DX009 (ip), vehicle: Klucel (hydroxypropylcellulose) (HPC) 99 % of control and 106 % of control | dose: 10.0 mg/kg/injection, schedule: Q01DX009 (ip), vehicle: Klucel (hydroxypropylcellulose) (HPC) 98 % of control and 101 % of control | dose: 20.0 mg/kg/injection, schedule: Q01DX009 (ip), vehicle: Klucel (hydroxypropylcellulose) (HPC) 110 % of control | dose: 40.0 mg/kg/injection, schedule: Q01DX005 (ip), vehicle: Klucel (hydroxypropylcellulose) (HPC) 90 % of control | dose: 40.0 mg/kg/injection, schedule: Q01DX009 (ip), vehicle: Klucel (hydroxypropylcellulose) (HPC) 99 % of control | dose: 80.0 mg/kg/injection, schedule: Q01DX005 (ip), vehicle: Klucel (hydroxypropylcellulose) (HPC) 90 % of control | dose: 150.0 mg/kg/injection, schedule: Q01DX005 (ip), vehicle: Klucel (hydroxypropylcellulose) (HPC) 91 % of control | dose: 160.0 mg/kg/injection, schedule: Q01DX005 (ip), vehicle: Klucel (hydroxypropylcellulose) (HPC) 108 % of control | dose: 300.0 mg/kg/injection, schedule: Q01DX005 (ip), vehicle: Klucel (hydroxypropylcellulose) (HPC) 100 % of control

COC1=CC(=O)C(=O)C(C(C)(C)C)=C1
inactive: dose: 15.0 mg/kg/injection, schedule: Q01DX005 (ip), vehicle: Klucel (hydroxypropylcellulose) (HPC) 104 % of control | dose: 30.0 mg/kg/injection, schedule: Q01DX005 (ip), vehicle: Klucel (hydroxypropylcellulose) (HPC) 86 % of control

CCOC(=O)c1[nH]c(C#N)c(C(=O)OCC)c1C
inactive: [1] 86 % of control | [2] 96 % of control | [3] 105 % of control

CCCCC/C=N/N(C)C=O
inactive: dose: 100.0 mg/kg/injection, schedule: Q04DX002 (ip), vehicle: saline 103 % of control | dose: 200.0 mg/kg/injection, schedule: Q04DX002 (ip), vehicle: saline 103 % of control | dose: 400.0 mg/kg/injection, schedule: Q04DX002 (ip), vehicle: saline 100 % of control

C1=C(CC[Si]23OCCN(CCO2)CCO3)CCCC1
inactive: [4] 110 % of control | [5] 103 % of control | [6] 103 % of control

COC(=O)[C@H]1[C@H]2CCOC1(c1cc(OC)c(OC)c(OC)c1)c1cc3c(cc1[C@H]2O)OCO3
inactive: dose: 4.5 mg/kg/injection, schedule: Q01DX009 (ip), vehicle: Klucel (hydroxypropylcellulose) (HPC) 102 % of control | dose: 9.0 mg/kg/injection, schedule: Q01DX009 (ip), vehicle: Klucel (hydroxypropylcellulose) (HPC) 104 % of control | dose: 18.0 mg/kg/injection, schedule: Q01DX009 (ip), vehicle: Klucel (hydroxypropylcellulose) (HPC) 96 % of control | dose: 36.0 mg/kg/injection, schedule: Q01DX009 (ip), vehicle: Klucel (hydroxypropylcellulose) (HPC) 100 % of control

Cc1c([N+](=O)[O-])c(=O)oc2ccc3c(=O)ccoc3c12
inactive: [7] 98 % of control | [8] 96 % of control | [9] 99 % of control

C1CCC(C2CCCC[N-]2)[N-]C1.C1CCC(C2CCCC[N-]2)[N-]C1.[Cl][Co][Cl] (stereo not drawn)
inactive: dose: 50.0 mg/kg/injection, schedule: Q01DX009 (ip), vehicle: saline 100 % of control | dose: 100.0 mg/kg/injection, schedule: Q01DX009 (ip), vehicle: saline 109 % of control

N#C[S-].N#C[S-].N#C[S-].N#C[S-].[Cr+6].[NH2-].[NH2-]
inactive: dose: 25.0 mg/kg/injection, schedule: Q04DX003 (ip), vehicle: saline 103 % of control | dose: 50.0 mg/kg/injection, schedule: Q04DX003 (ip), vehicle: saline 95 % of control

CC1(C)OC(=O)C(=Cc2ccc([N+](=O)[O-])s2)C(=O)O1
inactive: [10] 103 % of control and 110 % of control | [1] 109 % of control and 122 % of control | [2] 111 % of control and 124 % of control

CCN(CC)C(=O)OC1Cc2ccccc2CCc2ccccc2C1
inactive: dose: 100.0 mg/kg/injection, schedule: Q04DX003 (ip), vehicle: Klucel (hydroxypropylcellulose) (HPC) 103 % of control | dose: 200.0 mg/kg/injection, schedule: Q04DX003 (ip), vehicle: Klucel (hydroxypropylcellulose) (HPC) 101 % of control | dose: 400.0 mg/kg/injection, schedule: Q04DX003 (ip), vehicle: Klucel (hydroxypropylcellulose) (HPC) 101 % of control

CC(=O)O[C@@H]1C[C@@]2(C)C(CC(=O)[C@@H](C)[C@@H]2CC(=O)c2ccoc2)[C@@H](CO)[C@@H]1O (stereo partly drawn)
inactive: dose: 12.5 mg/kg/injection, schedule: Q01DX005 (ip), vehicle: Klucel (hydroxypropylcellulose) (HPC) 103 % of control | dose: 25.0 mg/kg/injection, schedule: Q01DX005 (ip), vehicle: Klucel (hydroxypropylcellulose) (HPC) 100 % of control | [4] 109 % of control | [5] 106 % of control | dose: 100.0 mg/kg/injection, schedule: Q01DX005 (ip), vehicle: Klucel + Tween-80 107 % of control | dose: 200.0 mg/kg/injection, schedule: Q01DX005 (ip), vehicle: Klucel + Tween-80 107 % of control | dose: 400.0 mg/kg/injection, schedule: Q01DX005 (ip), vehicle: Klucel + Tween-80 101 % of control

Clc1ccc2c(nnn2OC2CCCC2)c1Cl
inactive: [10] 88 % of control | [1] 94 % of control | [2] 94 % of control

CCOC(=O)/N=[N+](\[O-])c1cccc([N+](=O)[O-])c1
inactive: dose: 100.0 mg/kg/injection, schedule: Q01DX001 (ip), vehicle: saline with Tween-80 103 % of control | dose: 200.0 mg/kg/injection, schedule: Q01DX001 (ip), vehicle: saline with Tween-80 93 % of control

C=C(CCCC)C(=O)OC
inactive: [10] 102 % of control | [1] 111 % of control | [2] 108 % of control

Cc1ccc(S(=O)(=O)NC(CCC(N)=O)C(=O)O)cc1 (stereo not drawn)
inactive: [7] 100 % of control | [8] 103 % of control | [9] 91 % of control

COc1cc(OC)c(C(=O)C(CN(C)C)CN(C)C)cc1OC
inactive: dose: 1.87 mg/kg/injection, schedule: Q01DX005 (ip), vehicle: saline 113 % of control | dose: 3.75 mg/kg/injection, schedule: Q01DX005 (ip), vehicle: other 113 % of control | dose: 3.75 mg/kg/injection, schedule: Q01DX005 (ip), vehicle: saline 107 % of control | dose: 7.5 mg/kg/injection, schedule: Q01DX005 (ip), vehicle: other 108 % of control | dose: 7.5 mg/kg/injection, schedule: Q01DX005 (ip), vehicle: saline 106 % of control | dose: 15.0 mg/kg/injection, schedule: Q01DX005 (ip), vehicle: saline 107 % of control | dose: 120.0 mg/kg/injection, schedule: Q01DX005 (ip), vehicle: saline 124 % of control

Cc1[nH][nH]c(=O)c1C=Nc1ccccc1
inactive: [4] 103 % of control | [5] 100 % of control | [6] 95 % of control

N/N=C(/N)[Se]
inactive: dose: 6.25 mg/kg/injection, schedule: Q01DX009 (ip), vehicle: saline 101 % of control | dose: 12.5 mg/kg/injection, schedule: Q01DX009 (ip), vehicle: saline 90 % of control

CCOC(=O)C(CSC(c1ccccc1)(c1ccccc1)c1ccccc1)NC(=O)c1csc(CCNC(=O)c2ccccc2)n1 (stereo not drawn)
inactive: dose: 4.0 mg/kg/injection, schedule: Q01DX009 (ip), vehicle: other 100 % of control | dose: 8.0 mg/kg/injection, schedule: Q01DX009 (ip), vehicle: other 99 % of control | dose: 16.0 mg/kg/injection, schedule: Q01DX009 (ip), vehicle: other 91 % of control | dose: 32.0 mg/kg/injection, schedule: Q01DX009 (ip), vehicle: other 89 % of control | dose: 62.5 mg/kg/injection, schedule: Q01DX009 (ip), vehicle: other 113 % of control | dose: 64.0 mg/kg/injection, schedule: Q01DX009 (ip), vehicle: other 89 % of control | dose: 125.0 mg/kg/injection, schedule: Q01DX009 (ip), vehicle: other 108 % of control | dose: 250.0 mg/kg/injection, schedule: Q01DX009 (ip), vehicle: other 108 % of control

C/C(=N\NC(=S)Nc1ccc(C(=O)O)cc1)c1ccccn1
inactive: dose: 12.5 mg/kg/injection, schedule: Q01DX005 (ip), vehicle: saline with Tween-80 110 % of control | dose: 25.0 mg/kg/injection, schedule: Q01DX005 (ip), vehicle: saline with Tween-80 112 % of control | [7] 109 % of control and 114 % of control

CCOc1ccc(N2C(=O)CC(Sc3ccccc3N)C2=O)cc1 (stereo not drawn)
inactive: [1] 110 % of control | [2] 115 % of control | [3] 120 % of control
